The results in this text go back to paper PMC6154719 (Molecules : A Journal of Synthetic Chemistry and Natural …, 2017).

Holding throughout (type): in vitro ADME
Series [1] deals with T1, CYP1A2 (Rattus norvegicus, UniProt P04799).
T1 construct: Frozen liver (both rat and human) was thawed; from tissue; host or cells: rat liver microsomal fraction
T1 sequence (P04799 1-513): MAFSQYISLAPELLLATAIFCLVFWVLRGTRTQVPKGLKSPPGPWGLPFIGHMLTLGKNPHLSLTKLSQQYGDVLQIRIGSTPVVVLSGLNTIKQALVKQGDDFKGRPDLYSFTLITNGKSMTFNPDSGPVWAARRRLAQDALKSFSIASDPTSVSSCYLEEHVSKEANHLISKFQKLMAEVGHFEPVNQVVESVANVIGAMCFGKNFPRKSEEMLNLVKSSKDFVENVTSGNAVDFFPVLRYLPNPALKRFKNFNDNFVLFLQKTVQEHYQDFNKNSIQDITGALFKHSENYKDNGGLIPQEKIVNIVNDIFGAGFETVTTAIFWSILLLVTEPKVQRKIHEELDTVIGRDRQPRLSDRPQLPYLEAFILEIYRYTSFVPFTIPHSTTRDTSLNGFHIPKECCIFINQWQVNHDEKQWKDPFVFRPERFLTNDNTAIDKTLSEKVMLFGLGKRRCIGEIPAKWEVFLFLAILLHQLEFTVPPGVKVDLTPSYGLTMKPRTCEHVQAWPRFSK
As to the kind of experiment: CYP1A2 (EROD activity, 7-ethoxyresorufin O-deethylation) in rat liver microsomes. Conditions: for Specific Activity, CYP1A2 (EROD activity): in the presence of 100 µM sesquiterpene, control 22.8 ± 0.1. Here is the method:
(§1) Enzyme activities were assayed in human and rat liver cytosolic and microsomal fractions. The enzyme assays (each performed in 4–8 replicates) were repeated three times (HPLC measurement of CYP activities was repeated only twice, Table 3). Inhibition studies were carried out by incubation of specific substrates in the presence of sesquiterpenes (in the range 0–100 µM).
(§2) Enzyme activities of individual CYP forms were measured according to established protocols. The following microsomal CYP activities were tested: CYP2A6, coumarin 7-hydroxylation; CYP2B6, 7-ethoxy-4-(trifluoromethyl)coumarin 7-deethylation, CYP2C9, diclofenac 4′-hydroxylation, CYP2C19 assay, S-mephenytoin 4′-hydroxylation, CYP2D6 on bufuralol 1′-hydroxylation, CYP2E1, chlorzoxazone 6-hydroxylation and CYP3A4, testosterone 6β-hydroxylation, and midazolam 1′-hydroxylation. Activities were measured using the Prominence HPLC system (Shimadzu, Kyoto, Japan), equipped with a LiChroCART 250-4 LiChrospher 100 RP-18 column or Chromolith®HighResolution RP-18 end-capped column (Merck, Darmstadt, Germany) and UV or fluorescence detection, according to the cited literature. Further incubation details are described either in the corresponding references, as well as in the papers from this laboratory e.g., [42, 43, 44]. CYP1A2, 7-ethoxyresorufin O-deethylation, and CYP3A4/2B6 (human), CYP2B1 (rat), benzyloxyresorufin O-debenzylation were measured using the microplate reader Tecan Infinite M200 (Tecan Group; Mannedorf, Switzerland).
(§3) Sesquiterpenes CNER, TNER and FAR, non-volatile liquids, were pipetted, and proper concentration was calculated according to density. All compounds were dissolved in DMSO. The final solvent concentration in the inhibition assays was 1%, which had no effect on the enzyme activity (data not shown). Non-enzymatic interference of sesquiterpenes with some compounds in the reaction mixtures (e.g., fluorescence enhancing or quenching) was considered and excluded. All experiments were performed in three replicates, if not stated otherwise.
(§4) CNER, TNER and FAR at a fixed concentration of 100 µM were screened for inhibition of cytosolic AKR1A1, AKR1C, CBR1, NQO1, SULT, and GST, and microsomal CYPs and UGT. The degree of inhibition caused by sesquiterpenes was compared with non-inhibited control reactions, which contained solvent without sesquiterpenes.
(§5) The concentration of sesquiterpenes required for 50% inhibition of enzyme activity, the IC50 value, was determined. Their final concentrations in the reaction mixture were proposed to cover the entire inhibitory range of these compounds (1–100 µM). The IC50 values for each sesquiterpene were determined by plotting sigmoidal dose response curves of specific enzyme activity vs. logarithm of sesquiterpene concentration using GraphPad Prism version 6.07 for Windows (GraphPad Software Inc., La Jolla, CA, USA).
(§6) The kinetic inactivation study of the CYP1A2 (EROD activity) and CYP2B/3A (BROD activity), both in rat and human, with TNER, was performed to find out the mechanism of enzyme inhibition by this sesquiterpene. Mechanism of EROD and BROD inhibition was tested at the final ethoxyresorufin or benzyloxyresorufin concentrations 0.5–5.0 µM. The concentration of TNER was 5.0 µM.
(§7) Experimental data were fitted to the Michaelis-Menten equation, basic kinetic parameters were determined using the program GraphPad Prism version 6.07 for Windows. The type of inhibition was estimated using a Lineweaver-Burk (double-reciprocal) plot.

Series [2] has as its system CYP2B/3A. As to the kind of experiment: CYP2B/3A (BROD activity, benzyloxyresorufin O-debenzylation) in rat liver microsomes. The conditions noted are these: for IC50: probe benzyloxyresorufin; for Specific Activity, CYP2B/3A (BROD activity): in the presence of 100 µM sesquiterpene, control 1.74 ± 0.02. On the procedure: as §1, §2, §3, §4, §5, §6, §7
In general terms: Microsomes from liver hold many membrane-bound enzymes, among them those of drug oxidation.

The target in series [3] is T2, CBR1 (Homo sapiens, UniProt P16152).
T2 construct: Frozen liver (both rat and human) was thawed; from tissue; host or cells: human liver cytosolic fraction
T2 sequence (P16152 1-277): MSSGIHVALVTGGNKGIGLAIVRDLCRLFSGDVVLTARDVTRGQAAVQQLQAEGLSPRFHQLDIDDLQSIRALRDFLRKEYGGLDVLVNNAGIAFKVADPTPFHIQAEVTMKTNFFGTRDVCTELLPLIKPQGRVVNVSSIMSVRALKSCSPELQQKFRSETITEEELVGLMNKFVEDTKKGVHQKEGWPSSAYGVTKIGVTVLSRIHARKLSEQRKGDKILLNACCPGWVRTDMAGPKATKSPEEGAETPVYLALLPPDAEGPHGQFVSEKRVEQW
As to the kind of experiment: CBR1 activity in human liver subcellular fraction. Conditions: 100 µM sesquiterpene, control 6.62 ± 1.84. On the procedure: as §1
(§8) The assays of all other enzymes were based on spectrophotometric detection of product formed or detection of decreasing substrate/cofactor levels using microplate reader Tecan Infinite M200 in cytosolic or microsomal fractions. Enzyme activities were determined using slight modifications of previously-published methods: carbonyl reducing enzymes (AKR1A, AKR1C, CBR1 [45], NQO1 [46]), UDP-glucuronosyltransferase (UGT [47]), sulfotransferase (SULT [48]), and cytosolic glutathione-S-transferase (GST [49]).
as §3, §4

Series [4] deals with AKR1C. Briefly: AKR1C activity in rat liver subcellular fraction. The conditions noted are these: 100 µM sesquiterpene, control 14.8 ± 1.8. Here is the method:
as §1, §8, §3, §4

The test system of series [5] is GST. As to the kind of experiment: GST activity in human liver subcellular fraction. The conditions noted are these: 100 µM sesquiterpene, control 223 ± 19. Here is the method: as §1, §8, §3, §4
For series [6], the system named is UGT. As to the kind of experiment: UGT activity in human liver subcellular fraction. Conditions: 100 µM sesquiterpene, control 7.12 ± 0.35. Here is the method:
as §1, §8, §3, §4

Series [7] has as its system UGT. Briefly: UGT activity in rat liver subcellular fraction. Conditions: 100 µM sesquiterpene, control 16.2 ± 0.98. Here is the method: as §1, §8, §3, §4

The IC50 is the point on the concentration scale where inhibition reaches its midpoint. The term Ki denotes the equilibrium dissociation constant of an inhibitor or competing ligand from its target.

Take `C=CC(C)(O)CC/C=C(/C)CCC=C(C)C` (stereo not drawn) [CNER, cis-nerolidol]: in series [1] (rat liver microsomes), the half-maximal inhibitory concentration (IC50) turned out to be 5.7 µM and the “Specific Activity, CYP1A2 (EROD activity)” value (“Specific Activity, CYP1A2” below) worked out at 2.16 ± 0.04 pmol/mg/min. Besides, in series [2] (rat liver microsomes), the IC50 was found to be 6.47 µM and the “Specific Activity, CYP2B/3A (BROD activity)” value (“Specific Activity, CYP2B/3A” for short) worked out at 0.331 ± 0.009 pmol/mg/min. Besides, the “Specific activity, CBR1” value in series [3] is 7.17 ± 0.56 nmol/mg/min. In addition, the “Specific activity, AKR1C” value in series [4] was 14.6 ± 2.1 nmol/mg/min. The “Specific activity, GST” value in series [5] worked out at 209 ± 10 nmol/mg/min. Besides, the “Specific activity, UGT” value in series [6] was 7.09 ± 0.34 nmol/mg/min. Besides, the “Specific activity, UGT” value in series [7] came to 15.9 ± 1.11 nmol/mg/min.
Turning to `C=CC(C)(O)CC/C=C(\C)CCC=C(C)C` (stereo not drawn) [TNER, trans-nerolidol], the IC50 was found to be 4.38 µM in series [1] (rat liver microsomes) and 5.11 µM in series [2] (rat liver microsomes). Also, in series [1] (rat liver microsomes, EROD activity), the Ki was 4.68 ± 0.66 µM. Also, the “K’M” value in series [1] (rat liver microsomes, ethoxyresorufin 0.5–5.0 µM in the presence of TNER 5 µM, KM without TNER 1.64 ± 0.45) is given as 1.89 ± 0.49 µM; in series [2] (rat liver microsomes, benzyloxyresorufin 0.5–5.0 µM in the presence of TNER 5 µM, KM without TNER 0.74 ± 0.12), 1.26 ± 0.39 µM. Also, the “V’MAX” value turned out to be 2.21 ± 0.24 nM/min in series [1] (rat liver microsomes, ethoxyresorufin 0.5–5.0 µM in the presence of TNER 5 µM, VMAX without TNER 4.32 ± 0.47) and 0.81 ± 0.09 nM/min in series [2] (rat liver microsomes, benzyloxyresorufin 0.5–5.0 µM in the presence of TNER 5 µM, VMAX without TNER 7.04 ± 0.35). For the same compound, the “Specific Activity, CYP1A2” value in series [1] (rat liver microsomes) was determined as 1.53 ± 0.03 pmol/mg/min. The “type of inhibition, CYP1A2 (EROD)” value in series [1] (rat microsomes, 5 µM TNER, ethoxyresorufin 0.5–5.0 µM) is listed as “non-competitive”. The “Specific Activity, CYP2B/3A” value in series [2] (rat liver microsomes) turned out to be 0.153 ± 0.008 pmol/mg/min. The “type of inhibition, BROD activity” value in series [2] (rat microsomes, 5 µM TNER, benzyloxyresorufin 0.5–5.0 µM) is listed as “non-competitive”. Further, the “Specific activity, CBR1” value in series [3] is listed as 5.67 ± 0.67 nmol/mg/min. In addition, in series [4], the “Specific activity, AKR1C” value was 14.8 ± 1.6 nmol/mg/min. For the same compound, the “Specific activity, GST” value in series [5] worked out at 235 ± 13 nmol/mg/min. For the same compound, the “Specific activity, UGT” value in series [6] came to 7.08 ± 0.39 nmol/mg/min; in series [7] it was 16.4 ± 2.46 nmol/mg/min.
Regarding `CC(C)=CCC/C(C)=C/CC/C(C)=C/CO` [FAR, farnesol], in series [1] (rat liver microsomes), the IC50 came out at 16.1 µM and the “Specific Activity, CYP1A2” value turned out to be 1.55 ± 0.02 pmol/mg/min. In addition, in series [2] (rat liver microsomes), the IC50 was 4.43 µM and the “Specific Activity, CYP2B/3A” value was 0.212 ± 0.003 pmol/mg/min. Besides, the “Specific activity, CBR1” value in series [3] stood at 6.83 ± 0.70 nmol/mg/min. Besides, the “Specific activity, AKR1C” value in series [4] came to 14.9 ± 1.5 nmol/mg/min. Besides, the “Specific activity, GST” value in series [5] is 181 ± 13 nmol/mg/min. The “Specific activity, UGT” value in series [6] was 7.49 ± 1.08 nmol/mg/min. For the same compound, in series [7], the “Specific activity, UGT” value was 14.3 ± 3.15 nmol/mg/min.
